Counter-ions that a name gives are not always drawn.
Target: T1, LRRK2 Ser935 phosphorylation in SH-SY5Y cells over-expressing recombinant full length LRRK2 (Homo sapiens, UniProt Q5S007)
T1 construct: A BacMam virus expressing full length recombinant LRRK2 was purchased from Invitrogen; host or cells: SH-SY5Y human neuroblastoma cells transduced with BacMam LRRK2 virus
Assay: Recombinant cellular LRRK2 AlphaScreen assay
Type: cell-based
Conditions: human neuroblastoma SH-SY5Y cells, BacMam full length LRRK2, 60 minutes with compound, read-out: pIC50 in the recombinant cellular LRRK2 AlphaScreen assay (converted)
Excerpt: b. Recombinant Cellular LRRK2 AlphaScreen Assay
To determine the activity of compounds against LRRK2 kinase activity in cells, the observed LRRK2 kinase-dependent modulation of LRRK2 Ser 935 phosphorylation (Dzamko et al., 2010, Biochem. J. 430: 405-413) was utilized to develop a quantitative 384 well plate-based immunoassay of LRRK2 Ser935 phosphorylation in the human neuroblastoma cell line SH-SY5Y, engineered to over-express recombinant full length LRRK2 protein.
A BacMam virus expressing full length recombinant LRRK2 was purchased from Invitrogen and amplified by inoculation of SF-9 cells at MOI 0.3 for 4-5 days in Sf-900 III SFM medium supplemented with 3% fetal bovine serum. Infected cell cultures were then centrifuged at 2000 g for 20 minutes, viral supernatant titer determined by anti-gp64 plaque assay and stored at 4° C.
Affinity-purified anti-phospho LRRK2 Ser935 sheep polyclonal antibody (Dzamko et al., 2010, Biochem. J. 430: 405-413) was biotinylated by standard methods (PerkinElmer). Anti-LRRK2 rabbit polyclonal antibody was purchased from Novus Biologicals. AlphaScreen Protein A IgG Kit (including acceptor and donor beads) was purchased from Perkin Elmer.
SH-SY5Y cells were grown in DMEM/F12 medium with 10% dialysed fetal bovine serum and harvested by treatment with 0.5% trypsin-EDTA for 5 minutes at 37° C. followed by centrifugation at 1000 rpm for 4 minutes. The cell pellet was resuspended in Opti-MEM reduced serum media (Invitrogen) at 200,000 cells/ml and mixed with the BacMam LRRK2 virus at MOI=50. 50 μl cell solutions were then dispensed to each well of a 384-well plate and incubated at 37° C., 5% CO2 for 24 hours.
Serial dilutions of test compounds were prepared in Opti-MEM reduced serum media (Invitrogen) and 5.6 ul transferred from compound plate to cell assay plate to achieve a top final assay concentration of 10 uM. DMSO was used in certain wells as controls. Cells were incubated at 37° C., 5% CO2 for 60 minutes. The medium was then removed and cells lysed by addition of 20 ul cell lysis buffer (Cell Signaling Technology) and incubation at 4° C. for 20 minutes. 10 ul of antibody/acceptor bead mix [(1/1000 biotinylated-pS935 LRRK2 antibody, 1/1000 total-LRRK2 antibody, 1/100 Acceptor beads in AlphaScreen detection buffer (25 mM Hepes (pH 7.4), 0.5% Triton X-100, 1 mg/ml Dextran 500 and 0.1% BSA)] was then added to each well and plates incubated for 2 hours at ambient temperature in the dark. 10 μl of donor beads solution (1/33.3 donor beads in AlphaScreen detection buffer) was then added to each well. Following incubation for a further 2 hours at ambient temperature in the dark, plates were read on an EnVision™ plate reader at emission 520-620 nm with excitation 680 nm. Dose response curve data was based on sigmoidal dose-response model.

T1 sequence (Q5S007 whole entry): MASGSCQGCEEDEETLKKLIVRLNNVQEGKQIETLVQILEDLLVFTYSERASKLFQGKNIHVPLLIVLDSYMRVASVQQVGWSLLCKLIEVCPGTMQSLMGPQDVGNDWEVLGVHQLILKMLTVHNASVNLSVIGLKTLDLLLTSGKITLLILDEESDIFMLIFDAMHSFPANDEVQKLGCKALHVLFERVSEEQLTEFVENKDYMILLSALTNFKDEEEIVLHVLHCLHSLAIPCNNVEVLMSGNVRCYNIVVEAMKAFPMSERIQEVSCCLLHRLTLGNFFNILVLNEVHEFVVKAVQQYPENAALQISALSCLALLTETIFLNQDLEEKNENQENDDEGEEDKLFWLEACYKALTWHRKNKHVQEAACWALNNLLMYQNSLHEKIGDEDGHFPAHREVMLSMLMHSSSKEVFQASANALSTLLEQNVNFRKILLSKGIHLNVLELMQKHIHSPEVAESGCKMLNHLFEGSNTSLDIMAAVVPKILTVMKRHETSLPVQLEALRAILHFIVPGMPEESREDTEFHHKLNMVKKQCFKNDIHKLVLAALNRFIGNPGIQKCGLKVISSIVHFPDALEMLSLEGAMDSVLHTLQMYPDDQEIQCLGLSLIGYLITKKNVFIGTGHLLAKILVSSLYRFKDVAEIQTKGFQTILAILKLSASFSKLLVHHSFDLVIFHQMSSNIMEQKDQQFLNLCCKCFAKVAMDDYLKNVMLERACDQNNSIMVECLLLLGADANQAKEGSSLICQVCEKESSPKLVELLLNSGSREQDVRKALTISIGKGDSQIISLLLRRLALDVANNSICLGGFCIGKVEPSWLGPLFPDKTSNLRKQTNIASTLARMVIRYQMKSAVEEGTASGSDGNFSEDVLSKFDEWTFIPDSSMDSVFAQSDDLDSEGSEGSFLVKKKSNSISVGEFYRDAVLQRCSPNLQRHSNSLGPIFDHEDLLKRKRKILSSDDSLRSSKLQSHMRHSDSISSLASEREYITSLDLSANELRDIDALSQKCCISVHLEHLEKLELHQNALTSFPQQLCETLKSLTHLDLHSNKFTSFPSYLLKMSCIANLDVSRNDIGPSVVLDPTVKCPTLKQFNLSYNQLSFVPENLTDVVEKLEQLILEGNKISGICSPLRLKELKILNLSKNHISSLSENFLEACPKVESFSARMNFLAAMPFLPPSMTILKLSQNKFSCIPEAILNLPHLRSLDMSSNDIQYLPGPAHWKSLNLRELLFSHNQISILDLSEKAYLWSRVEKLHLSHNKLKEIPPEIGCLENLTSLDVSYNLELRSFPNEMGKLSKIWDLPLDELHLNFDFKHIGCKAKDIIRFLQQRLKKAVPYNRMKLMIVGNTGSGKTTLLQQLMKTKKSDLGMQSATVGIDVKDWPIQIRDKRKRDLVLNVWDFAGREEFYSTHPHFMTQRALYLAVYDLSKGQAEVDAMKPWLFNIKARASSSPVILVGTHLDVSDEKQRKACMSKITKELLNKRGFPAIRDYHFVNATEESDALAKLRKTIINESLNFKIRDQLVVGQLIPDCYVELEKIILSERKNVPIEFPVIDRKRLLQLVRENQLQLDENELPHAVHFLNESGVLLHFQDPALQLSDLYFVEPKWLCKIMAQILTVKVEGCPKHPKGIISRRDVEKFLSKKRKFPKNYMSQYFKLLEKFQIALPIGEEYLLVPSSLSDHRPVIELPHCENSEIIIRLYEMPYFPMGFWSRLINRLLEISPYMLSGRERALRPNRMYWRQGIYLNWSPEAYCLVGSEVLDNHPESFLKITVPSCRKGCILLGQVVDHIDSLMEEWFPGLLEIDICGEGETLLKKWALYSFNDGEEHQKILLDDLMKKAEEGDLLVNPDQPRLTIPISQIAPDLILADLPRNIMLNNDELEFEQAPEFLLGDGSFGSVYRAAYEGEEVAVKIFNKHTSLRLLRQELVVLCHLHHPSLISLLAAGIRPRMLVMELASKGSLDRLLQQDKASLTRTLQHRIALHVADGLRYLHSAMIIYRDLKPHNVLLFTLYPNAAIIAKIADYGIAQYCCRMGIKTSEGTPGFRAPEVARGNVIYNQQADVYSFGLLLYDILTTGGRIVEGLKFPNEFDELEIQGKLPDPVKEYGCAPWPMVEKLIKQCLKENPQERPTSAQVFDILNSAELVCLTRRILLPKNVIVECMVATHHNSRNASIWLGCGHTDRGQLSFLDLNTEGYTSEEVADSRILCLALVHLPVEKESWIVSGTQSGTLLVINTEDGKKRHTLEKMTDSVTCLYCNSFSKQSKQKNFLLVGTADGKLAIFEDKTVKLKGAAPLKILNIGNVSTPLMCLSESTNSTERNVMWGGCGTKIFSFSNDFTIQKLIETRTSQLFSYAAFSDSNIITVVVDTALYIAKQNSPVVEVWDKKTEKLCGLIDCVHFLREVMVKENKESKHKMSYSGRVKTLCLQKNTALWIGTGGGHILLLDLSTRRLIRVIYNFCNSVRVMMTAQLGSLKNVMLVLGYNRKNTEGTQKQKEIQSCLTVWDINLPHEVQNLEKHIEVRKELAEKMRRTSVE

IC50	Structure (SMILES)
≤ 1000 nM	Cc1nc(N2CC3CC2CO3)cc(-n2ncc3cc(C)c([C@H]4CC[C@@](C)(O)CC4)cc32)n1 (single isomer, unassigned) [Example E9]
≤ 1000 nM	Cc1nc(N2CC3CC2CO3)cc(-n2ncc3cc(C)c([C@H]4CC[C@](C)(O)CC4)cc32)n1 (single isomer, unassigned) [Example E10]
≤ 10 nM	COc1nc(N2CC3CC2CO3)cc(-n2ncc3cc(C)c([C@H]4CC[C@@](C)(O)CC4)cc32)n1 (single isomer, unassigned) [Example E11]
≤ 1000 nM	COc1nc(N2CC3CC2CO3)cc(-n2ncc3cc(C)c([C@H]4CC[C@](C)(O)CC4)cc32)n1 (single isomer, unassigned) [Example E12]
≤ 1000 nM	COc1nc(N2C[C@H]3C[C@@H]2CO3)cc(-n2ncc3cc(C)c(C4CCN(C5CCOC5)CC4)cc32)n1 (single isomer, unassigned) [Example E13]
≤ 1000 nM	COc1nc(N2C[C@@H]3C[C@H]2CO3)cc(-n2ncc3cc(C)c(C4CCN(C5CCOC5)CC4)cc32)n1 (single isomer, unassigned) [Example E15]
≤ 10 nM	COc1nc(N2C[C@H]3C[C@@H]2CO3)cc(-n2ncc3cc(C)c(C4CCN(CCO)CC4F)cc32)n1 (single isomer, unassigned) [Example E17]
≤ 10 nM	COc1nc(N2CC3CC2CO3)cc(-n2ncc3cc(C)c(C4CCN(CCO)CC4F)cc32)n1 (single isomer, unassigned) [Example E18]
≤ 1000 nM	COc1nc(N2C[C@@H]3C[C@H]2CO3)cc(-n2ncc3cc(C)c(C4CCN(CCO)CC4F)cc32)n1 (single isomer, unassigned) [Example E19]
≤ 1000 nM	Cc1nc(N2C[C@@H]3C[C@H]2CO3)cc(-n2ncc3cc(C)c(C4CCN(CCO)CC4F)cc32)n1 (single isomer, unassigned) [Example E21]
≤ 1000 nM	Cc1nc(N2CC3CC2CO3)cc(-n2ncc3cc(C)c(C4CCN(CCO)CC4F)cc32)n1 (single isomer, unassigned) [Example E23]
≤ 1000 nM	Cc1nc(N2C[C@@H]3C[C@H]2CO3)cc(-n2ncc3cc(Cl)c(N4CCC(C)(O)C4)cc32)n1 (single isomer, unassigned) [Example E47]
≤ 1000 nM	Cc1nc(N2C[C@H]3C[C@@H]2CO3)cc(-n2ncc3cc(Cl)c(N4CCC(C)(O)C4)cc32)n1 (single isomer, unassigned) [Example E49]
≤ 1000 nM	COc1nc(N2CC3CCC2CO3)cc(-n2ncc3cc(C)c(C4CCN(C5CCOC5)CC4)cc32)n1 (single isomer, unassigned) [Example E64, 5-(2-methoxy-6-(5-methyl-6-(1-(tetrahydrofuran-3-yl)piperidin-4-yl)-1H-indazol-1-yl)pyrimidin-4-yl)-2-oxa-5-azabicyclo[2.2.2]octane]
≤ 1000 nM	COc1nc(N2C[C@H]3C[C@@H]2CO3)cc(-n2ncc3cc(Cl)c(C4CCN(C5CCOC5)CC4)cc32)n1 (single isomer, unassigned) [Example E67]
≤ 1000 nM	COc1nc(N2C[C@@H]3C[C@H]2CO3)cc(-n2ncc3cc(Cl)c(C4CCN(C5CCOC5)CC4)cc32)n1 (single isomer, unassigned) [Example E69]

IC50	Structure (SMILES)
≤ 1000 nM	COc1nc(N2C[C@H]3C[C@@H]2CO3)cc(-n2ncc3cc(C)c(C4CCC(N5CCOCC5)CC4)cc32)n1 (single isomer, unassigned) [Example E71]
≤ 10 nM	Cc1nc(N2CC3CC2CC3C(=O)O)cc(-n2ncc3cc(C)c(C4CCC(C)(O)CC4)cc32)n1 (single isomer, unassigned) [Example E75, 2-(6-(6-(cis-4-hydroxy-4-methylcyclohexyl)-5-methyl-1H-indazol-1-yl)-2-methylpyrimidin-4-yl)-2-azabicyclo[2.2.1]heptane-5-carboxylic Acid]
≤ 10 nM	Cc1nc(N2CC3CC2CC3C(=O)O)cc(-n2ncc3cc(C)c(C4CCC(C)(O)CC4)cc32)n1 (single isomer, unassigned) [Example E76, 2-(6-(6-(cis-4-hydroxy-4-methylcyclohexyl)-5-methyl-1H-indazol-1-yl)-2-methylpyrimidin-4-yl)-2-azabicyclo[2.2.1]heptane-5-carboxylic Acid, TFA Salt]
≤ 1000 nM	Cc1nc(N2CC3CC2CC3C(=O)O)cc(-n2ncc3cc(C)c(C4CCOCC4)cc32)n1 (single isomer, unassigned) [Example E82, 2-{2-Methyl-6-[5-methyl-6-(tetrahydro-pyran-4-yl)-indazol-1-yl]-pyrimidin-4-yl}-2-aza-bicyclo[2.2.1]heptane-5-carboxylic Acid]
≤ 1000 nM	COc1nc(N2CC3CC2CC3C(=O)O)cc(-n2ncc3cc(Cl)c(O[C@H]4CCOC4)cc32)n1 (single isomer, unassigned) [Example E84]
≤ 1000 nM	COc1nc(N2CC3CC2CC3C(=O)O)cc(-n2ncc3cc(Cl)c(O[C@@H]4CCOC4)cc32)n1 (single isomer, unassigned) [Example E85]
≤ 1000 nM	COc1nc(N2CC3CC2CO3)cc(-n2ncc3cc(C)c(C4CCN(C5COC5)CC4O)cc32)n1 (single isomer, unassigned) [Example E132]
≤ 1000 nM	COc1nc(N2CC3CC2CO3)cc(-n2ncc3cc(C)c(C4CCN(C5CCOC5)CC4O)cc32)n1 (single isomer, unassigned) [Example E135]
≤ 1000 nM	Cc1nc(N2CC3CC2CO3)cc(-n2ncc3cc(C)c(C4CCN([C@H]5CCOC5)CC4O)cc32)n1 (single isomer, unassigned) [Example E137]
≤ 1000 nM	Cc1nc(N2CC3CC2CO3)cc(-n2ncc3cc(C)c(C4CCN(C5COC5)CC4O)cc32)n1 (single isomer, unassigned) [Example E141]
≤ 1000 nM	Cc1nc(N2C[C@H]3C[C@@H]2CO3)cc(-n2ncc3cc(C)c(C4CCN(C5COC5)CC4(C)O)cc32)n1 (single isomer, unassigned) [Example E147]
≤ 1000 nM	Cc1nc(N2C[C@H]3C[C@@H]2CO3)cc(-n2ncc3cc(C)c(C4CCN(C5CCOC5)CC4F)cc32)n1 (single isomer, unassigned) [Example E149]
≤ 1000 nM	Cc1nc(N2C[C@@H]3C[C@H]2CO3)cc(-n2ncc3cc(C)c(C4CCN(C5CCOC5)CC4F)cc32)n1 (single isomer, unassigned) [Example E151]
≤ 1000 nM	Cc1nc(N2CC3(CO)CC2CO3)cc(-n2ncc3cc(C)c(C4CCN(C5CCOC5)CC4)cc32)n1 (single isomer, unassigned) [Example E153, (5-(2-methyl-6-(5-methyl-6-(1-(tetrahydrofuran-3-yl)piperidin-4-yl)-1H-indazol-1-yl)pyrimidin-4-yl)-2-oxa-5-azabicyclo[2.2.1]heptan-1-yl)methanol]
≤ 1000 nM	Cc1nc(N2C[C@H]3C[C@@H]2CO3)cc(-n2ncc3cc(C)c(C4CCN(CCC(=O)O)CC4F)cc32)n1 (single isomer, unassigned) [Example E155]

Structure (SMILES)	IC50
Cc1nc(N2CC3CC(C2)C3C(=O)O)cc(-n2ncc3cc(C)c([C@H]4CC[C@@](C)(O)CC4)cc32)n1 (single isomer, unassigned) [Example E77, Cis-3-{6-[6-(4-Hydroxy-4-methyl-cyclohexyl)-5-methyl-indazol-1-yl]-2-methyl-pyrimidin-4-yl}-3-aza-bicyclo[3.1.1]heptane-6-carboxylic Acid]	≤ 1000 nM
Cc1nc(N2CC3CC(C2)C3C(=O)O)cc(-n2ncc3cc(C)c(C4CCC(C)(O)CC4)cc32)n1 (single isomer, unassigned) [Example E78, Cis-3-{6-[6-(4-Hydroxy-4-methyl-cyclohexyl)-5-methyl-indazol-1-yl]-2-methyl-pyrimidin-4-yl}-3-aza-bicyclo[3.1.1]heptane-6-carboxylic Acid]	≤ 10 nM

— patent US10858367B2, “Compounds” (GLAXOSMITHKLINE INTELLECTUAL PROPERTY DEVELOPMENT LIMITED, priority 2017, dated 2020)
